pIC50: −log10 of the molar value.
Biological target: SARS-CoV-2 Main Protease (SARS-CoV-2) (UniProt P0DTD1)
Conditions: not given

Compound | pIC50
CC(C)CCN1C(=O)C(=O)c2cc(Br)ccc21 | 4.61
Cc1ccncc1NC(=O)Cc1cc(Cl)cc(NC2(C)CCC(F)(F)CC2)c1 | 4.34
CC(=O)NCc1cc(Cl)cc(CC(=O)Nc2cnccc2C)c1 | 4.26
Nc1nn(C(=O)Cc2cccc(Cl)c2)c2ccc(F)cc12 | 4.03
CCc1cc(F)ccc1-c1cc(Cl)cc(CC(=O)Nc2cnccc2C)c1 | 4.58
O=C(Nc1cncc2ccccc12)[C@@H]1COc2ccc(Cl)cc2C1 (stereo in doubt) | 5.45
Cc1ccncc1NC(=O)Cc1cc(Cl)cc(-c2cnn(C)c2C(F)F)c1 | 4.80
Cn1c(C(NC(=O)Cc2cc3ccccc3[nH]2)c2cccc(Cl)c2)nc2ccccc21 (centres undefined) | 4.50
O=C(Cc1cncc2ccccc12)N1CCOc2ccc(Cl)cc21 | 5.44
O=C(Cc1cccc(Cl)c1)Nc1cnccc1C1CC1 | 5.13
O=C(Cc1cccc(Cl)c1)Nc1n[nH]c2ccc(F)cc12 | 4.05
Cc1c(N)cncc1NC(=O)Cc1cccc(C#N)c1 | 4.49
CN(C)c1ccc(N(Cc2ccccc2)C(=O)Cn2nnc3ccccc32)cc1 | 5.81
COc1ccc(Cl)cc1OCCNC(=O)c1cc(=O)[nH]c2cccc(OC)c12 | 6.72
Cc1ccncc1NC(=O)C(C)c1cc(Cl)cc(OC2CC(=O)N2)c1 (centres undefined) | 4.06
Cc1ccncc1NC(=O)Cc1cc(Cl)cc(-c2ccc(C3(C)CCO3)cc2)c1 (centres undefined) | 4.82
O=C(Nc1cncc2ccccc12)C1=CCCc2ccc(Cl)cc21 | 7.09
O=C(Nc1n[nH]c2ccnc(Br)c12)C1CCOc2ccc(Cl)cc21 (centres undefined) | 4.13
C[C@@H]1C[C@@H](C(=O)Nc2cncc3ccccc23)c2cc(Cl)ccc2O1 (stereo in doubt) | 6.28
O=C(Cn1nnc2ccccc21)N(Cc1cccc(Cl)c1)c1ccc(N2CCOCC2)cc1 | 5.42

Compound | pIC50
O=C(Cc1cccc(Cl)c1)Nc1cncc2c1CCCC2 | 5.73
C[C@@H]1C[C@H](C(=O)Nc2cncc3ccccc23)c2cc(Cl)ccc2O1 (stereo in doubt) | 5.58
CC(C)(C)c1ccc(N(C(=O)c2cn[nH]c2)C(C(=O)NCCc2cccc(F)c2)c2cccnc2)cc1 (centres undefined) | 5.32
O=C1OC(c2cccs2)=N/C1=C\c1ccc(N2CCOCC2)s1 | 6.15
Cc1ccncc1NC(=O)Cc1cc(Cl)cc(OCc2ncn[nH]2)c1 | 4.09
O=C(c1cncc2ccccc12)N1CCN(c2cccc(Cl)c2)CC1 | 6.08
Cc1cc(C(F)(F)F)nc2c1c(N)nn2C(=O)C1CCOc2ccc(Cl)cc21 (centres undefined) | 4.24
O=C(Cc1cc(Cl)cc(Cc2ccn[nH]2)c1)Nc1cncc2ccccc12 | 5.03
CN(C)c1ccc(N(Cc2cscn2)C(=O)Cn2nnc3ccccc32)cc1 | 4.84
Cc1nc(CN2C(=O)C(=O)c3cc(Br)ccc32)cs1 | 4.74
Cc1c(C(=O)CCl)c2ccccn2c1C(=O)c1ccc(F)cc1 | 6.15
O=C(Cc1cncc2ccccc12)N(CCC1CCCCC1)c1cccc(Cl)c1 | 5.99
CCCCOc1ccc(Cl)cc1CC(=O)Nc1cnccc1C | 4.80
CNC(=O)Nc1ccc(N(Cc2ccsc2)C(=O)Cn2nnc3ccccc32)cc1 | 4.81
Cc1ccncc1NC(=O)Cc1cc(C#N)cc(OC2CC(=O)N2)c1 (centres undefined) | 5.06
Nc1nn(C(=O)C2CCOc3ccc(Cl)cc32)c2cc(F)ccc12 (centres undefined) | 4.27
COc1ccccc1OCCC(=O)Nc1cncc2ccccc12 | 4.07
N#Cc1ncn(CC(=O)Nc2ccc(Br)cc2Cl)n1 | 5.54
COc1ccc(N(Cc2cccc(Cl)c2)C(=O)Cn2nnc3ccccc32)cc1 | 5.25
O=C(Cc1cccc(Cl)c1)Nc1[nH]nc2cccc(F)c12 | 4.09

Compound | pIC50
COc1ccc2nnn(CC(=O)N(Cc3ccccn3)c3ccc(C4CCNCC4)cc3)c2c1 | 4.49
O=C(Cn1nnc2ccccc21)N(Cc1cccc(Cl)c1)c1ccc(N2CCCCC2)cc1 | 5.22
O=C(Cc1cccc(Cl)c1)Nc1cccc2[nH]ncc12 | 4.63
C=CC(=O)N(c1ccc(I)cc1)C(C(=O)Nc1ccc(Cl)cc1)c1cncnc1 (centres undefined) | 5.56
O=C(Nc1c[nH]c(=O)c2ccccc12)C1CCOc2ccc(Cl)cc21 (centres undefined) | 4.08
CNc1ccc(N(C(=O)Cn2nnc3ccccc32)c2cccc(Cl)c2)cc1 | 4.98
CCN(c1ccccc1)S(=O)(=O)c1ccc(OC)c(NC(=O)CCl)c1 | 5.16
O=C(Cc1cccc(Cl)c1)Nc1cnccc1-c1ccccc1 | 4.60
COc1ccc2c(N)nn(C(=O)C3CCOc4ccc(Cl)cc43)c2c1 (centres undefined) | 4.21
Cc1ccc(NC2=C(c3ccccc3)C(=O)N(Cc3cccnc3)C2=O)cc1Cl | 4.49
Cc1ccc(NC2=C(c3ccccc3)C(=O)N(Cc3cccnc3)C2=O)cc1C | 4.36
O=C(Nc1cncc2ccccc12)C1CCCc2ccc(Cl)cc21 (centres undefined) | 6.54
Cc1ccncc1NC(=O)Cc1cc(Cl)cc(OCc2nnc(C3CCCCC3)o2)c1 | 4.88
Cc1ccncc1NC(=O)Cc1cc(Cl)cc(-c2ccc(C)c(F)c2F)c1 | 4.25
COc1cccc(C2=N/C(=C/c3sccc3C)C(=O)O2)c1 | 5.29
Nc1nn(C(=O)C2CCOc3ccc(Cl)cc32)c2ccncc12 (centres undefined) | 4.02
C[C@H]1C[C@@H](C(=O)Nc2cncc3ccccc23)c2cc(Cl)ccc2O1 (stereo in doubt) | 4.34
Cc1ccncc1NC(=O)Cc1cc(Cl)cc(CNS(C)(=O)=O)c1 | 4.49
O=C(Cc1cccc(Cl)c1)Nn1nnc2ccccc21 | 4.51
Cc1noc(COc2cc(Cl)cc(CC(=O)Nc3cnccc3C)c2)n1 | 4.62

Same assay, conditions: 20.0 µM

Compound | inhibition [%]
CC(=O)Nc1cccc(N2CCCC2=O)c1 | 11.4

Same assay, conditions: 50.0 µM

Compound | inhibition [%]
Cc1oncc1C(=O)Nc1ccc(S(F)(F)(F)(F)F)cc1 | 0
CC(C)C1=C(O)C(=O)C2=C(CC[C@H]3C(C)(C)CCC[C@]23C)C1=O (stereo in doubt) | 10.2
COc1cc2c(c3ccccc13)OC(C)(C)CC2Oc1cc2c(cc1C)C(=O)c1ccccc1C2=O (centres undefined) | 4
COc1ccc2c(=O)cc(-c3cc(OCc4ccccc4)ccc3OC)oc2c1 | 1.98
O=C(O)c1cn(-c2ccc(F)cc2)c2cc(N3CCNCC3)c(F)cc2c1=O | 20
CC(=O)Nc1cccc(N2CCCC2=O)c1 | 22.7
Cc1cc(O)c2c3c(ccc2c1)C(=O)c1c(O)cccc1C3=O | 5
CC(C)(C)c1ccc(N(C(=O)c2cn[nH]c2)C(C(=O)NCCc2cccc(F)c2)c2cccnc2)cc1 (centres undefined) | 100
O=C1OC(c2cccs2)=N/C1=C\c1ccc(N2CCOCC2)s1 | 91.7
Cc1cc(C(=O)CCl)c(C)n1NC(=O)c1n[nH]c(=O)c2ccccc12 | 42.3
Cc1c(C(=O)CCl)c2ccccn2c1C(=O)c1ccc(F)cc1 | 94.7
O=c1ccc2c3ccc(=O)c4c(O)ccc(c5ccc(O)c1c52)c43 | 42.5
Cc1ccncc1NC(=O)Cc1cc(Cl)cc(NS(C)(=O)=O)c1 | 54.6
CC(C)(O)CC1C2=C(Oc3c1c1c(c4ccccc34)OC(C)(C)C=C1)C(=O)c1ccccc1C2=O (centres undefined) | 3.92
COc1ccc2c(=O)c(O)c(-c3ccc(OCc4ccccc4)c(OCc4ccccc4)c3)oc2c1 | 14.1
C[N+]1=C2C=C(N/C=C/c3ccc(O)cc3)C(=O)c3[nH]cc(c32)CC1 | 8.91
COc1ccc2nnn(CC(=O)N(Cc3ccccn3)c3ccc(C4CCNCC4)cc3)c2c1 | 94.8
O=C(Nc1cncc2ccccc12)C1CCOc2ccc(Br)cc21 (centres undefined) | 90.6
CCN(c1ccccc1)S(=O)(=O)c1ccc(OC)c(NC(=O)CCl)c1 | 61.2
Cc1ccncc1NC(=O)Cc1cc(Cl)cc(OCc2nnc(C3CCCCC3)o2)c1 | 100
C[C@H]1O[C@H](C)C2Oc3cc(O)c4c(=O)c5c6c7c8c(cc(=O)c9c(O)c1c2c(c3c47)c98)O[C@@H]6[C@@H](C)O[C@@H]5C (stereo in doubt) | 0
COc1cccc(C2=N/C(=C/c3sccc3C)C(=O)O2)c1 | 77.6
C[N+]1=C2C=C(NCCc3ccc(O)cc3)C(=O)c3[nH]cc(c32)CC1 | 2.74

From the COVID Moonshot data (paper PMC11187573), “Identification of SARS-CoV-2 Mpro inhibitors through deep reinforcement learning for de novo drug design and computational chemistry approaches” (RSC Medicinal Chemistry, 2024)
